# Assay results reported in US6566331B1, “Treatment of collagen related diseases” (Alphamed Pharmaceutical Corp, priority 1999, dated 2003).
# Columns and labels:
# Type in all cases: in vivo, human
# [1] = tested on: women with interstitial cystitis; assay: 19 patient study of women with interstitial cystitis, intravesical instillation
# Protocol: A 19 patient study of women with interstitial cystitis was conducted for four weeks. Three of the patients were diagnosed as being urinary incontinent. The diagnosis of IC was considered as being mild to severe. Powdered alpha 1-antitrypsin (40 mg) was dissolved in 40 ml of saline solution. The solutions were instilled into the bladder for 20 minutes weekly for four weeks. Cystoscopy was carried out during and after filling the bladder for one minute at a pressure of 80 cm of water under spinal and general anesthesia. Bladder biopsies were carried out during cystoscopy. 24-hour collection for measurement of creatine, methylhistamine and tryptase were taken.
# In lieu of the recombinant or natural alpha 1-antitrypsin, the conjugate with PEG may be used.
# [2] = tested on: patient having scleroderma of the finger; assay: salve used daily on a patient having scleroderma of the finger
# Protocol: A salve comprising 1% alpha 1-antitrypsin was prepared with Aquaphor® and 1% water. The salve was used daily on a patient having scleroderma of the finger. The finger was bent and constricted. The skin around the finger was hardened. After a daily application for one month the skin was softer, the finger was more flexible and the bending was less severe.
# [3] = tested on: patient with rheumatoid arthritis; assay: DMSO solution administered to arthritic knee of a patient with rheumatoid arthritis; conditions: 5 percent solution in DMSO, topical on arthritic knee; after one week of treatment
# Protocol: A 5 percent solution of alpha 1-antitrypsin was prepared with DMSO. A patient with rheumatoid arthritis administered the composition to an arthritic knee.
# [4] = 40 mg in 40 ml saline instilled into the bladder for 20 minutes weekly for four weeks, weekly studies
# [5] = salve, 1% alpha 1-antitrypsin with Aquaphor and 1% water, daily application for one month
substance,measurement,setting,value
alpha 1-antitrypsin,"creatine, 24-hour collection",[1]; [4],decrease
same,"methylhistamine, 24-hour collection",[1]; [4],decrease
same,"tryptase, 24-hour collection",[1]; [4],decrease
same,lesions by cystoscopy,[1]; after two weeks of weekly instillation,substantial decrease in lesions
same,continence of the incontinent patients,"[1]; after two weeks of weekly instillation, three urinary incontinent patients",continent
same,bending of the finger,[2]; [5],less severe
same,flexibility of the finger,[2]; [5],more flexible
same,skin around the finger,[2]; [5],softer
same,finger position after the treatment was stopped,[2]; within six months after stopping the 1% salve,returned to the bent position
same,knee flexibility,[3],greater flexibility
same,knee pain,[3],free of pain
same,knee swelling,[3],substantial reduction in swelling
